Measured values: patent US20240261308A1, “TREATMENT OF SKIN CONDITIONS USING HIGH KRAFFT TEMPERATURE ANIONIC SURFACTANTS” (ARCUTIS BIOTHERAPEUTICS, INC., priority 2020, published 2024)

Assay: not given
Details: commonly used anionic surfactants, table values; cited from earlier work

Compound | Krafft Temperature [°C]
CCCCCCCCCCCCOS(=O)(=O)O.N [Ammonium lauryl sulfate (ALS), Ammonium lauryl sulfate] | 10
CCCCCCCCCCCCCCCCOS(=O)(=O)[O-].[Na+] [Sodium cetyl sulfate] | 45.0
CCCCCCCCCCOS(=O)(=O)[O-].[Na+] [Sodium decyl sulfate] | 8.0
CCCCCCCCCCCCCCCCS(=O)(=O)[O-].[Na+] [Sodium hexadecyl sulfonate] | 57.0
CCCCCCCCCCCCOS(=O)(=O)[O-].[Na+] [Sodium lauryl sulfate (SLS), Sodium lauryl sulfate] | 16.0
CCCCCCCCCCCCCC(=O)[O-].[Na+] [Sodium myristate] | 39
CCCCCCCCCCCCCCOS(=O)(=O)[O-].[Na+] [Sodium myristyl sulfate] | 30.0
CCCCCCCCCCCCCCS(=O)(=O)[O-].[Na+] [Sodium myristyl sulfonate] | 48.0
CCCCCCCCCCCCCCCC(=O)[O-].[Na+] [Sodium palmitate] | 69
CCCCCCCCCCCCCCCCCC(=O)[O-].[Na+] [Sodium stearate] | 71
CCCCCCCCCCCCCCCCCCOS(=O)(=O)[O-].[Na+] [Sodium stearyl sulfate] | 56.0
Sodium laureth sulfate [Sodium laureth sulfate (SLES)] | <0

Assay: Krafft temperature determination of dilute aqueous surfactant in a water bath (dissolution and frothing)
Format: physicochemical
Details: 0.012% ceteth-10 phosphate, 0.017% dicetyl phosphate, 0.014% sodium cetostearyl sulfate in distilled water
Description: 0.0012 grams of ceteth-10 phosphate (Moravek Lot 671-144-000-A-20190821-JHO) was weighed into a 20 mL glass scintillation vial. 10.0113 grams of distilled water was added to the scintillation vial and the vial was tightly capped and placed in a water bath. […] The surfactant remained as waxy particles sedimented on the bottom of the vial. After equilibration at 53.0° C. for 435 minutes, ceteth-10 phosphate had dissolved and the sample frothed when shaken. The Krafft temperature of a 0.012% ceteth-10 phosphate aqueous solution was determined to be 53.0° C.
0.0019 grams of dicetyl phosphate (Sigma dihexadecyl phosphate lot STBH2863) was weighed into a 20 mL glass scintillation vial. 11.2262 grams of distilled water was added to the scintillation vial and the vial was tightly capped and placed in a water bath. […] After equilibration at 58.0° C. for 450 minutes, dicetyl phosphate had dissolved and the sample frothed when shaken. The Krafft temperature of a 0.017% dicetyl phosphate aqueous solution was determined to be 58.0° C.
0.0024 grams of sodium cetostearyl sulfate (BASF Lanette E Granules Lot 0021826181) was weighed into a 20 mL glass scintillation vial. 17.0763 grams of distilled water was added to the scintillation vial and the vial was tightly capped and placed in a water bath. […] The Krafft temperature of a 0.014% sodium cetostearyl sulfate aqueous solution was determined to be 41.0° C.

Krafft Temperature [°C] | Compound
53 | ceteth-10 phosphate [Ceteth - 10 phosphate]

Same assay, conditions: 0.012% ceteth-10 phosphate, 0.017% dicetyl phosphate, 0.014% sodium cetostearyl sulfate in distilled water; listed as ceteth-10 phosphate

Krafft Temperature [°C] | Compound
53 | ceteth-10 phosphate [Ceteth - 10 phosphate]
